According to patent US5585373A, “3-(7'-oxo-1'-aza-4'-oxabicyclo[3.2.0]-hept-3'-YL)propionic acid derivative as antitumor agent” (priority 1994, dated 1996):
In brackets after ≈: the same amount, converted by molar mass.

What was measured:
[1] = tested on: KB cells; assay: In Vitro KB Cell Cytotoxicity Assay; type: cell-based; conditions: Homo sapiens, 72 h, crystal violet staining, 3 days incubation
Procedure: Pharmacological Test 1 (In Vitro KB Cell Cytotoxicity Assay)
The cytotoxicity against KB cells was determined in accordance with a protein staining method (Grillis et al., Anal. Biochem., 159, 109 (1986)) using crystal violet. Stated more specifically, KB cells were incubated in an Eagle's minimum medium containing 10% FCS in a CO2 incubator at 37° C. The number of the cells was counted with a hemocytometer. A 100 μl quantity of the cell suspension, 3×10^4 cells/ml, was placed into each well of a 96-well plate and incubated for 24 hours. Portions (100 μl) of the drug diluted to final concentrations of 10, 1, 0.1, 0.01 and 0.001 μg/ml were added, as one dosage, to three wells, respectively. A drug-free medium was added to the wells of the control group. After incubation for 3 days, 25 μl of 25% glutaraldehyde was added and fixed for 15 minutes, followed by washing with water and drying. A 100 μl quantity of 0.05% crystal violet was added for 15 minutes of staining, followed by washing with water and drying. Extraction was performed with 100 μl of 0.05M NaH2 PO4 /EtOH (1:1 volume ratio). The absorbance was measured at a wavelength of 540 nm with a multi-scan spectrophotometer. The percent cell growth inhibition was calculated based on the absorbance by the following equation [formula]
The IC50 value (concentration of the drug for inhibiting the cell growth by 50%) was calculated through log-logit transformation of the dose-response curve and linear regression.

[2] = tested on: Sarcoma 180; assay: In Vivo Antitumor Activity against Sarcoma 180; conditions: for Mortality in 12 days: intraperitoneal, every four days, three times, ICR mice; for Cell growth inhibition rate: ip
Procedure: Pharmacological Test 2 (In Vivo Antitumor Activity against Sarcoma 180)
5×10^6 cells of transplantable mouse tumor, Sarcoma 180, were subcutaneously transplanted in the dorsal portion of 6-week-old male ICR mice (6-7 mice in each group). The test drug was dissolved in physiological saline containing 0.25 % Tween 80 and 3.5% dimethyl sulfoxide. The solution was intraperitoneally administered to the mice every four days, starting the administration 24 hours after the transplantation, three times in total. On the 12th day after the transplantation, the tumors were removed from the bodies and weighed. The average weight of the tumors in the test group and the corresponding weight in the control group were calculated to determine the ratio of tumor growth inhibition.

Structure (SMILES)	IC50 [1] [mg/L]	further results
O=C(OCc1ccccc1)[C@H](O)[C@@H](O)[C@H]1CN2C(=O)C[C@@H]2O1 [Compound 4, benzyl(2R,3R)-2,3-dihydroxy-3-[(3'R,5'S)-7'-oxo-1'-aza-4'-oxabicylo[3.2.0]hept-3'-yl]propionate]	0.07 (≈ 0.228 µM)	–
O=C(OCc1ccccc1)[C@@H](O)[C@H](O)[C@H]1CN2C(=O)C[C@@H]2O1 [Compound 5, benzyl(2S,3S)-2,3-dihydroxy-3-[(3'R,5'S)-7'-oxo-1'-aza-4'-oxabicyclo[3.2.0]hept-3'-yl]propionate]	0.3 (≈ 0.976 µM)	–
O=C(OCc1ccccc1)[C@@H](O)[C@@H](O)[C@H]1CN2C(=O)C[C@@H]2O1 [Compound 6, benzyl (2S,3R)-2,3-dihydroxy-3-[(3'R,5'S)-7'-oxo-1'-aza-4'-oxabicylo[3.2.0]hept-3'-yl]propionate]	0.09 (≈ 0.293 µM)	–
O=C(OCc1ccccc1)[C@H](O)[C@H](O)[C@H]1CN2C(=O)C[C@@H]2O1 [Compound 7, benzyl(2R,3S)-2,3-dihydroxy-3-[(3'R,5'S)-7'-oxo-1'-aza-4'-oxabicyclo[3.2.0]hept-3'-yl]propionate]	0.09 (≈ 0.293 µM)	–
CC(=O)O[C@@H]([C@H]1CN2C(=O)C[C@@H]2O1)[C@@H](N)C(=O)O [Compound 12a, 3(R)-acetoxy-2(R)-amino-3-[(3'R,5'S)-7'-oxo-1'-aza-4'-oxabicyclo[3.2.0]hept-3'-yl]propionic acid]	3 (≈ 11.6 µM)	–
N[C@@H](C(=O)O)[C@@H](OC(=O)c1ccccc1)[C@H]1CN2C(=O)C[C@@H]2O1 [Compound 12b, 2(R)-amino-3(R)-benzoyloxy-3-[(3'R,5'S)-7'-oxo-1'-aza-4'-oxabicyclo[3.2.0]hept-3'-yl]propionic acid]	0.3 (≈ 0.937 µM)	Mortality in 12 days ([2]; 5 mg/kg/day): 0/7; Mortality in 12 days ([2]; 10 mg/kg/day): 0/7; Mortality in 12 days ([2]; 20 mg/kg/day): 0/7; Cell growth inhibition rate ([2]; 5 mg/kg): 19%; Cell growth inhibition rate ([2]; 10 mg/kg): 19%; Cell growth inhibition rate ([2]; 20 mg/kg): 31%
CO[C@H]([C@H](N)C(=O)O)[C@H]1CN2C(=O)C[C@@H]2O1 [Compound 32a, 3-[(3'R,5'S)-7'-oxo-1'-aza-4'-oxabicyclo[3.2.0]hept-3'-yl]-2(S)-amino-3(R)-methoxypropionic acid]	0.03 (≈ 0.13 µM)	–
N[C@H](C(=O)O)[C@@H](OCc1ccccc1)[C@H]1CN2C(=O)C[C@@H]2O1 [Compound 32b, 3-[(3'R,5'S)-7'-oxo-1'-aza-4'-oxabicyclo[3.2.0]hept-3'-yl]-2(S)-amino-3(R)-benzyloxypropionic acid]	0.06 (≈ 0.196 µM)	Mortality in 12 days ([2]; 0.1 mg/kg/day): 0/6; Mortality in 12 days ([2]; 1.0 mg/kg/day): 0/6; Cell growth inhibition rate ([2]; 0.1 mg/kg): 12%; Cell growth inhibition rate ([2]; 1 mg/kg): 38%
N[C@H](C(=O)O)[C@@H](OCc1ccc(F)cc1)[C@H]1CN2C(=O)C[C@@H]2O1 [Compound 32c, 3-[(3'R,5'S)-7'-oxo-1'-aza-4'-oxabicyclo[3.2.0]hept-3'-yl]-2(S)-amino-3(R )-(4"-fluorobenzyl)oxy-propionic acid]	0.04 (≈ 0.123 µM)	–
COc1ccc(CO[C@H]([C@H](N)C(=O)O)[C@H]2CN3C(=O)C[C@@H]3O2)cc1 [Compound 32d, 3-[(3'R,5'S)-7'-oxo-1'-aza-4'-oxabicyclo[3.2.0]hept-3'-yl]-2(S)-amino-3(R)-(4"-methoxybenzyl)oxypropionic acid]	0.09 (≈ 0.268 µM)	–
N[C@H](C(=O)O)[C@@H](OCC1CC1)[C@H]1CN2C(=O)C[C@@H]2O1 [Compound 32e, 3-[(3'R,5'S)-7'-oxo-1'-aza-4'-oxabicyclo[3.2.0]hept-3'-yl]-2(S)-amino-3(R )-cyclopropylmethyloxypropionic acid]	0.4 (≈ 1.48 µM)	–
O=C(OC(c1ccccc1)c1ccccc1)[C@H]([C@@H](OCc1ccccc1)[C@H]1CN2C(=O)C[C@@H]2O1)N(Cc1ccccc1)C(=O)OCc1ccccc1 [Compound 42, diphenylmethyl 3-[(3'R,5'S)-7'-oxo-1'-aza-4'-oxabicyclo[3.2.0]hept-3'-yl]-2(S)-(N-benzyloxycarbonyl-N-benzyl)amino-3(R)-benzyloxypropionate]	3 (≈ 4.31 µM)	–
O=C(OC(c1ccccc1)c1ccccc1)[C@H]([C@@H](OCc1ccccc1)[C@H]1CN2C(=O)C[C@H]2O1)N(Cc1ccccc1)C(=O)OCc1ccccc1 [Compound 43, diphenylmethyl 3-[(3'R,5'R)-7'-oxo-1'-aza-4'-oxabicyclo[3.2.0]hept-3'-yl]-2(S)-(N-benzyloxycarbonyl-N-benzyl)amino-3(R)-benzyloxypropionate]	3 (≈ 4.31 µM)	–
